Key:
Assay type in all cases: in vivo
[1] = Open field test, motor activity of mice given nicotine; conditions: nicotine 0.3 mg/kg s.c. over 4 days
Description: The effects of I) the combination of ultra-low doses of polyclonal rabbit antibodies to brain-specific protein S-100 (ULD anti-S100) and ultra-low doses of antibodies to cannabinoid receptor type 1 (ULD anti-CB1), each obtained by hyper-dilution of the initial matrix solution 100^12, 100^30, 100^200 times (mixture of centesimal homeopathic dilutions C12, C30, C200) (ULD anti-S100+ULD anti-CB1), ii) ULD anti-CB1 alone, and iii) ULD anti-S100 alone, on motor activity of mice were studied to evaluate their anti-nicotine properties.
40 white outbred male mice (22-25 g, 1.5 mo.) were used. 10 mice were intact. The rest of the mice were administered nicotine subcutaneously over 4 days at the dose of 0.3 mg/kg, Nicotine administration was preceded (1 hour prior) by intragastrical administration of either distilled water (control, 0.4 ml/mouse), or ULD anti-S100 (0.4 ml/mouse), or ULD anti-CB1 (0.4 ml/mouse), or ULD anti-S100+ULD anti-CB1 (0.4 ml/mouse). 30 minutes after the last administration of nicotine, an “open field” test was conducted. The animals were placed in the center of a TruScan photo-sensory installation (Coulbourn, USA), where the vertical and horizontal locomotor activity of the animals was automatically recorded in the course of two (2) minutes. The “open field” model makes it possible to evaluate the effect of the compounds on the locomotor activity of the animals (Gershenfield H. K., Neumann P. E., Mathis C., Crawley J. N., Li X., Paul S. M. Mapping quntative Trait Loci for Open-Field Behavior in Mice. Behavioral Genetics.—1997.—Vol. 27.—No 3.—p. 201-209, which is incorporated herein by reference in its entirety and for the purpose stated). The installation parameters: size 270×270×360 mm, divided into 64 squares, 2.5×2.5, with 25 mm openings situated in the platform floor, illumination of a 150 watt lamp.

[2] = Feed consumption and body mass growth of C57B1 mice on high calorie diet, 5 months
Description: (§1) The test substance was in the form of an aqueous solution of ultra-low doses of polyclonal rabbit antibodies to human cannabinoid receptor type 1 (ULD anti-CB1), purified on antigen, obtained by hyper-dilution of the initial matrix solution 100^12, 100^30, 100^200 times (mixture of centesimal homeopathic dilutions C12, C30, and C200).
40 male mice of the C57B1 line were used in the study (weight at the beginning of the study: 13.5-15.5 g). 10 mice received the regular standard feed (standard diet); 30 mice received the standard feed with high calorie additives (high calories diet) and, simultaneously, either distilled water (control, 0.4 ml/mouse) or Subutramine (Meridia 10 mg capsules, Abbott GmbH, Germany) (10 mg/Kg) or ULD anti-CB1 (0.4 ml/mouse). All preparations were given intragastrically once a day in the course of 5 months. The mice consumption of feed was measured before test substances were introduced. The mice consumption of feed was also measured each week thereafter. The consumption of feed was evaluated as an average quantity of food (in grams), consumed by a mouse after 1 and 2 months of the study, and as an average quantity of feed per 10 g of mouse body mass.

[3] = Body mass growth of C57B1 mice on high (45%) fat diet, 2 months; conditions: for Body mass (grams): high fat diet
Description: as §1
33 male mice of the C57B1 line were used in the study (weight at the beginning of the study: 13.09±0.738 g). The mice received the modified diet with high (45%) fat content and simultaneously either distilled water (control, 0.2 ml/mouse) or Subutramine (10 mg/Kg) or ULD anti-CB1 (0.2 ml/mouse). All ULD anti-CB1 preparations were given intragastrically once a day in the course of 2 months. The mice weight was measured on Philips Cucina HR 239016 (Hungary) electronic scales until beginning to introduce the preparations (initially) and also each week after beginning to introduce them. The body mass growth of the mice was evaluated as a percentage of the initial weight.

CN1CCCC1c1cccnc1 (centres unmarked) [nicotine]
decrease of immobility time in comparison with the intact animals [1]: 13.5% | increase of activity time in comparison with the intact animals [1]: 8.2% | increase of distance traveled in comparison with the intact animals [1]: 5.1% | increase of quantity of openings investigated in comparison with the intact animals [1]: 78.2% | increase of study reaction time in comparison with the intact animals [1]: 76.9%

CC(C)CC(N(C)C)C1(c2ccc(Cl)cc2)CCC1 (centres unmarked) [Subutramine]
Consumption of feed (g per 10 g of body mass) per day ([2]; average over 5 months, M±m): 1.28 ± 0.05 g per 10 g of body mass per da | Consumption of feed (g/mouse) per day ([2]; average over 5 months, M±m): 2.75 ± 1.36 g/mouse per day | decrease of consumption of feed in reference to the control ([2]; intragastrically once a day, in a week): 19.3% | lowered body mass in comparison with the control group ([2]; last twentieth week): 51.5% | Body mass (grams) ([3]; week 0 (initial)): 13.82 grams | Δ to initial (body mass growth, percentage of initial weight) ([3]; week 1): −2.6% | Body mass (grams) ([3]; week 1): 13.45 grams | Δ to initial (body mass growth, percentage of initial weight) ([3]; week 2): 21.1% | Body mass (grams) ([3]; week 2): 16.73 grams | Δ to initial (body mass growth, percentage of initial weight) ([3]; week 3): 43.4% | Body mass (grams) ([3]; week 3): 19.82 grams | Δ to initial (body mass growth, percentage of initial weight) ([3]; week 4): 46.1% | Body mass (grams) ([3]; week 4): 20.18 grams | Δ to initial (body mass growth, percentage of initial weight) ([3]; week 5): 51.3% | Body mass (grams) ([3]; week 5): 20.91 grams | Δ to initial (body mass growth, percentage of initial weight) ([3]; week 6): 61.8% | Body mass (grams) ([3]; week 6): 22.36 grams | Δ to initial (body mass growth, percentage of initial weight) ([3]; week 7): 71.1% | Body mass (grams) ([3]; week 7): 23.64 grams | Δ to initial (body mass growth, percentage of initial weight) ([3]; week 8): 65.8% | Body mass (grams) ([3]; week 8): 22.91 grams

— patent US8865163B2, “Pharmaceutical compositions and methods of treatment” (priority 2010, dated 2014)
